Key:
[1] = tested on: Guinea pig ventricular myocytes; experiment: Mitochondrial Ca2+ ([Ca2+]m, rhod-2) in patch-clamped myocytes; assay type: cell-based
Description: (§1) Guinea pig ventricular myocytes were isolated by enzymatic digestion as described previously. O'Rourke, B., et al., “Oscillations of membrane current and excitability driven by metabolic oscillations in heart cells,” Science, 265(5174):962-966 (Aug. 12, 1994). Cells were suspended in Dulbecco's Modification of Eagle's Medium (DMEM) supplemented with 5% fetal bovine serum, 1% penicillin/streptomycin, and 15 mmol/L HEPES, pH 7.4, and stored in a 5% CO2 incubator at 37° C.
Cytosolic Ca^2+ ([Ca^2+]c), mitochondrial Ca^2+ ([Ca^2+]m), and [Na^+]i were measured with the fluorescent indicators indo-1, rhod-2, and sodium-binding benzofuran isophthalate (SBFI), respectively (Invitrogen, Carlsbad, Calif.), and mitochondrial NADH was measured as the cellular autofluorescence with 360-nm excitation/450-nm emission. Indo-1 was loaded into cell with the membrane permeable form, indo-1 AM. To minimize indo-1 loading into the mitochondrial compartment, cells were briefly incubated with indo-1 AM at room temperature for 20 min. Rhod-2 and SBFI experiments were carried out as previously described. Maack et al., supra, Liu and O'Rourke, supra. […]
Isolated ventricular myocytes were loaded into a heated field-stimulation chamber (Warner Instruments, Hamden, Conn.) at 37° C. on the stage of a fluorescence microscope (Nikon Eclipse TE300, Nikon Instruments, Inc., Melville, N.Y.). […]

[2] = tested on: Guinea pig ventricular myocytes; experiment: Action potentials and delayed afterdepolarizations in current-clamped myocytes; assay type: cell-based; settings: for incidence of DAD-triggered APs: 100-nM isoproterenol, 1-μM ouabain without or with 1-μM CGP-37157, 1 Hz, last minute of stimulation
Description: as §1
Isolated ventricular myocytes were loaded into a heated field-stimulation chamber (Warner Instruments, Hamden, Conn.) at 37° C. on the stage of a fluorescence microscope (Nikon Eclipse TE300, Nikon Instruments, Inc., Melville, N.Y.). The myocytes were first superfused with control Tyrode's solution containing: NaCl (130 mmol/L), KCl (5 mmol/L), MgCl2 (1 mmol/L), Na-HEPES (10 mmol/L), CaCl2 (2 mmol/L), glucose (10 mmol/L), at pH 7.4. After one minute of recording in the absence of electrical stimulation in control buffer, 1-μM ouabain and 100-nM isoproterenol, with or without 1 μM CGP-37157, were added to buffer. After another five minutes of recording, myocytes were field-stimulated at 1 Hz for three minutes followed by a two-minute recording after returning to the resting state. To record [Ca^2+]m and action potentials, myocytes were whole-cell patch-clamped at 37° C. Tyrode's solution was used as external solution and the internal solution contained: NaCl (10 mmol/L), KCl (19 mmol/L), K-glutamate (125 mmol/L), MgCl2 (0.5 mmol/L), HEPES (10 mmol/L), MgATP (5 mmol/L), at pH 7.25.
In current-clamped myocytes, electrically-stimulated action potentials (APs) were recorded at 1 Hz and the probability of observing one or more delayed afterdepolarization-(DAD) triggered action potentials was determined during the last minute of stimulation.

aortic-banded animals = experiment: Acute sudden cardiac death model (ascending aortic banding plus isoproterenol 5 mg/kg); assay type: in vivo, guinea pig; settings: single dose 5 mg/kg isoproterenol i.p. two days after aortic banding; CGP-37157 by osmotic pump; 77% without CGP-37157
Text: As provided herein, the presently disclosed subject matter investigated whether these mechanisms underlie sudden cardiac death (SCD) and contractile decompensation in hypertrophic heart failure in two novel guinea-pig models of combined ascending aortic constriction together with β-adrenergic stimulation and whether therapy via mNCE inhibition was effective. Accordingly, in some embodiments, the presently disclosed subject matter provides a therapeutic strategy for treating heart failure.
Two models were developed: acute SCD and delayed SCD. The acute SCD model used a high dose of isoproterenol (5 mg/kg) administered by a single intraperitoneal injection two days after ascending aortic banding; and the delayed SCD model used low dose isoproterenol (week one: 1 mg/kg; subsequent weeks: 2 mg/kg), administered by daily intraperitoneal injection over the course of five weeks after aortic banding. Additionally, a therapeutic regime comprised of chronic treatment with an inhibitor of mNCE, e.g., CGP-37157, mean dose approximately 40 μg/kg, administered by implantation of an osmotic pump in the abdominal cavity (delivery rate: 0.015 mg/kg/hr) for extended delivery of the compound was initiated.

Guinea pig hearts = experiment: Hemodynamics of isolated perfused hearts (Langendorff)
Text: Guinea pig hearts were quickly excised under anesthesia and mounted on a modified Langendorff apparatus attached to a Powerlab system (AD Instruments, Colorado Springs, Colo.). Hearts were perfused with gassed (95/5% O2/CO2) control buffer containing: 118-mM NaCl, 24-mM NaHCO3, 1.2-mM KH2PO4, 4.75-mM KCl, 1.2-mM MgSO4, 2.0-mM CaCl2, and 10-mM glucose. A buffer-filled latex balloon (Harvard apparatus) was inserted through the mitral valve into the left ventricle. Hearts were suspended in a buffer-filled heating chamber maintained at 37° C. and two electrodes were placed into the bath for volume-conducted electrocardiogram recordings. Heart rate, left ventricular developed pressure (LVDP), maximal rates of contraction and relaxation (±dP/dt), oxygen consumption, and electrocardiograms (ECG) were recorded on a computer. After a ten-minute equilibration period, hearts were subjected to the following protocol: ten-minute baseline recording while the heart was perfused with control buffer, ten-minute recording while 0.25-μM ouabain with or without 1 μM CGP-37157, and sixty-minute recording while hearts were stimulated with 25-nM isoproterenol. The measurements of hemodynamic parameters were determined by taking the average during the last two minutes before ouabain treatment (baseline) and for two minutes during the maximal effect on LVDP of either ouabain or isoproterenol.
In Table 1A-1C, hemodynamics of isolated perfused hearts were recorded at baseline, with ouabain treatment (1 μM), and with ouabain plus isoproterenol (100 nM) stimulation with or without CGP-37157 (1 μM). HR, heart rate; LVDP, left ventricular developed pressure; Oua: ouabain; CGP: CGP-37157; VF: ventricular fibrillation. *p<0.05 compared to group without CGP; † p<0.05 compared to baseline.

[3] = 25-nM isoproterenol in ouabain-treated hearts, absence (isoproterenol) or presence of CGP-37157
[4] = at baseline, group with CGP-37157
[5] = ouabain application, without or with CGP-37157
[6] = with ouabain treatment (1 μM, 0.25-μM), −CGP = ouabain alone, +CGP = plus CGP-37157 1 μM
[7] = with ouabain treatment and isoproterenol stimulation, −CGP without, +CGP with CGP-37157 1 μM

Compound | incidence of DAD-triggered APs [2] | increase of +dP/dt compared to baseline (Guinea pig hearts; [5]) | increase of −dP/dt compared to baseline (Guinea pig hearts; [5]) | +dP/dt (Guinea pig hearts; [6]) | HR (Guinea pig hearts; [6]) | LVDP (Guinea pig hearts; [6]) | −dP/dt (Guinea pig hearts; [6]) | +dP/dt (Guinea pig hearts; [7]) | HR (Guinea pig hearts; [7]) | LVDP (Guinea pig hearts; [7]) | further results
O=C1CSC(c2ccccc2Cl)c2cc(Cl)ccc2N1 (stereo not shown) [CGP-37157, 7-chloro-5-(2-chlorophenyl)-1,5-dihydro-4,1-benzothiazepin-2(3H)-one] | not significantly different from controls | approximately 36% | approximately 23% | 3167 ± 481 † | 250.0 ± 13.4 | 100.7 ± 12.0 † | −2306 ± 218 † | 5530 ± 736 † * | 306.7 ± 22.8 † | 130.9 ± 18.4 † | [Ca2+]m accumulation ([1]; 1 μM CGP-37157 with 1-μM ouabain + 100-nM isoproterenol, 1-Hz stimulation): significantly enhanced [Ca^2+]m accumulation; amplitude of DADs ([2]; ouabain plus CGP-37157 versus ouabain alone): smaller amplitude than in ouabain alone; death rate (aortic-banded animals): 20%; increase of +dP/dt compared to the level with ouabain treatment (Guinea pig hearts; [3]): 75%; increase of LVDP compared to the level with ouabain treatment (Guinea pig hearts; [3]): 30%; increase of heart rate (HR) compared to the level with ouabain treatment (Guinea pig hearts; [3]): 23%; increase of −dP/dt compared to the level with ouabain treatment (Guinea pig hearts; [3]): 53%; +dP/dt (Guinea pig hearts; [4]): 2326 ± 303; HR (Guinea pig hearts; [4]): 239.3 ± 8.0; LVDP (Guinea pig hearts; [4]): 91.9 ± 10.6; −dP/dt (Guinea pig hearts; [4]): −1872 ± 163; −dP/dt (Guinea pig hearts; [7]): −3518 ± 419 †
C[C@@H]1O[C@@H](O[C@H]2C[C@@H](O)[C@]3(CO)[C@H]4[C@H](O)C[C@]5(C)[C@@H](C6=CC(=O)OC6)CC[C@]5(O)[C@@H]4CC[C@]3(O)C2)[C@H](O)[C@H](O)[C@H]1O [ouabain, 1β,3β,5β,11α,14,19-Hexahydroxycard-20(22)-enolide 3-(6-deoxy-α-L-mannopyranoside, reference compound] | significant increase in the incidence of DAD-triggered APs | 20% | 4% | 2241 ± 376 † | 246.3 ± 20.3 | 106.0 ± 17.0 † | −1855 ± 229 † | 3529 ± 644 † | 315.3 ± 25.0 † | 100.4 ± 18.3 | increase of diastolic [Ca2+]m during 1-Hz stimulation ([1]; 1-μM ouabain + 100-nM isoproterenol): < 10%; increase of LVDP compared to baseline (Guinea pig hearts; [5]): 13%
